Measurements: ChEMBL document CHEMBL5325400 (Eur J Med Chem, 2023)

Legend:
Type in all cases: functional, cell-based
SK-OV-3 = experiment: Antiproliferative activity against human SK-OV-3 cells assessed as inhibition of cell growth measured after 48 hrs by MTT assay; conditions: SK-OV-3, 48 h
HepG2 = experiment: Antiproliferative activity against human HepG2 cells assessed as inhibition of cell growth measured after 48 hrs by MTT assay; conditions: HepG2, 48 h
MDA-MB-231 = experiment: Antiproliferative activity against human MDA-MB-231 cells assessed as inhibition of cell growth measured after 48 hrs by MTT assay; conditions: MDA-MB-231, 48 h
HeLa = experiment: Antiproliferative activity against human HeLa cells assessed as inhibition of cell growth measured after 48 hrs by MTT assay
B16-F10 = experiment: Antiproliferative activity against mouse B16-F10 cells assessed as inhibition of cell growth measured after 48 hrs by MTT assay; conditions: B16-F10, 48 h
A549 = experiment: Antiproliferative activity against human A549 cells assessed as inhibition of cell growth measured after 48 hrs by MTT assay; conditions: A549, 48 h

Row | Compound | IC50 (SK-OV-3) [nM] | IC50 (HepG2) [nM] | IC50 (MDA-MB-231) [nM] | IC50 (HeLa) [nM] | IC50 (B16-F10) [nM] | IC50 (A549) [nM]
1 | COc1cccc(Nc2nc(Nc3cccc(NC(=O)C4CC4)c3)c3ccsc3n2)c1 | > 1000 | > 1000 | > 1000 | > 1000 | > 1000 | > 1000
2 | COc1cccc(Nc2nc(Nc3cccc(NC(=O)C4CC4)c3)nc3sccc23)c1 | > 1000 | > 1000 | > 1000 | > 1000 | > 1000 | > 1000
3 | O=C(Nc1cccc(Nc2nc(Nc3cccc(C(F)(F)F)c3)nc3ccccc23)c1)C1CC1 | > 1000 | > 1000 | > 1000 | > 1000 | > 1000 | > 1000
4 | COc1cccc(Nc2cc(Nc3cccc(NS(=O)(=O)C4CCCCC4)c3)ncn2)c1 | 286 | > 1000 | > 1000 | > 1000 | > 1000 | > 1000
5 | COc1cccc(Nc2cc(Nc3cccc(C(=O)NC4CC4)c3)ncn2)c1 | > 1000 | > 1000 | > 1000 | > 1000 | > 1000 | > 1000
6 | COc1cccc(Nc2cc(Nc3cccc(NC(=O)C4CCCC4)c3)ncn2)c1 | 9.6 | 158 | 105 | 41.5 | > 1000 | 198
7 | COc1cccc(Nc2cc(Nc3cccc(NC(=O)C4CC4)c3)nc(C)n2)c1 | 156 | 93.2 | > 1000 | 120 | 9.6 | > 1000
8 | Cc1cccc2c1CCN2c1cc(Nc2cccc(NC(=O)C3CC3)c2)ncn1 | > 1000 | > 1000 | > 1000 | > 1000 | > 1000 | > 1000
9 | CCC(=O)Nc1cccc(Nc2cc(Nc3cccc(OC)c3)ncn2)c1 | 14.1 | 99.3 | > 1000 | 6.7 | 392 | 273
10 | COc1cccc(Nc2cc(Nc3cccc(NS(=O)(=O)C4CC4)c3)ncn2)c1 | 56.8 | 284 | 438 | 130 | 54.2 | 81.6
11 | O=C(Nc1cccc(Nc2nc(Nc3cccc(C(F)(F)F)c3)c3sccc3n2)c1)C1CC1 | > 1000 | > 1000 | > 1000 | > 1000 | > 1000 | > 1000
12 | O=C(Nc1cccc(Nc2nc(Nc3cccc(C(F)(F)F)c3)nc3ccsc23)c1)C1CC1 | > 1000 | > 1000 | > 1000 | > 1000 | > 1000 | > 1000
13 | COc1cccc(Nc2nc(Nc3cccc(NC(=O)C4CC4)c3)c3sccc3n2)c1 | > 1000 | > 1000 | > 1000 | > 1000 | > 1000 | > 1000
14 | COc1ccc(C)c(Nc2cc(Nc3cccc(NC(=O)C4CC4)c3)ncn2)c1 | 56.9 | 35.2 | 48.8 | 17.9 | 2.3 | 2
15 | COc1cc(Nc2cc(Nc3cccc(NC(=O)C4CC4)c3)ncn2)ccc1Cl | 811 | 374 | 356 | 397 | 472 | 547
16 | O=C(Nc1cccc(Nc2cc(N3CCc4ccccc43)ncn2)c1)C1CC1 | > 1000 | > 1000 | > 1000 | > 1000 | > 1000 | > 1000
17 | COc1cccc(Nc2cc(Nc3cccc(NC(=O)C(C)(C)C)c3)ncn2)c1 | > 1000 | > 1000 | > 1000 | > 1000 | > 1000 | > 1000
18 | COc1cccc(Nc2cc(Nc3cccc(C(=O)NC4CCCC4)c3)ncn2)c1 | > 1000 | > 1000 | > 1000 | > 1000 | > 1000 | > 1000
19 | COc1cccc(Nc2cc(Nc3cccc(NC(=O)C4CC4)c3)ncn2)c1F | 26.8 | 313 | 31.4 | 45.7 | 181 | 4.8
20 | COc1cccc(Nc2cc(Nc3cccc(NC(=O)C(C)C)c3)ncn2)c1 | 41.1 | > 1000 | 644 | > 1000 | > 1000 | 299
21 | O=C(Nc1cccc(Nc2nc(Nc3cccc(C(F)(F)F)c3)c3ccccc3n2)c1)C1CC1 | > 1000 | > 1000 | > 1000 | > 1000 | > 1000 | > 1000
22 | COc1cccc(Nc2nc(Nc3cccc(NC(=O)C4CC4)c3)c3ccccc3n2)c1 | > 1000 | > 1000 | > 1000 | > 1000 | > 1000 | > 1000

Row | Compound | IC50 (SK-OV-3) [nM] | IC50 (HepG2) [nM] | IC50 (MDA-MB-231) [nM] | IC50 (HeLa) [nM] | IC50 (B16-F10) [nM] | IC50 (A549) [nM]
23 | O=C(Nc1cccc(Nc2cc(N3CCc4c3cccc4C(F)(F)F)ncn2)c1)C1CC1 | > 1000 | > 1000 | > 1000 | > 1000 | > 1000 | > 1000
24 | COc1cccc(Nc2cc(Nc3ccc(NC(=O)C4CC4)cc3)ncn2)c1 | > 1000 | > 1000 | > 1000 | > 1000 | > 1000 | > 1000
25 | COc1cccc(Nc2cc(Nc3cccc(OC)c3)ncn2)c1 | > 1000 | > 1000 | > 1000 | > 1000 | > 1000 | > 1000
26 | COc1nc(Nc2cccc(NC(=O)C3CC3)c2)cc(Nc2cccc(C(F)(F)F)c2)n1 | > 1000 | > 1000 | > 1000 | > 1000 | > 1000 | > 1000
27 | COc1cccc(Nc2cc(Nc3cccc(C(=O)NC4CCCCC4)c3)ncn2)c1 | > 1000 | > 1000 | > 1000 | > 1000 | > 1000 | > 1000
28 | CC(=O)c1cccc(Nc2cc(Nc3cccc(NC(=O)C4CC4)c3)ncn2)c1 | 31.6 | 127 | 64.9 | 22.5 | 167 | 509
29 | Cc1nc(Nc2cccc(NC(=O)C3CC3)c2)cc(Nc2cccc(C(F)(F)F)c2)n1 | 123 | 64.1 | > 1000 | > 1000 | 562 | > 1000
30 | COc1cc(Nc2cc(Nc3cccc(NC(=O)C4CC4)c3)ncn2)ccc1F | 42.7 | 342 | 107 | 65.9 | 199 | 218
31 | COc1cccc(Oc2cc(Nc3cccc(NC(=O)C4CC4)c3)ncn2)c1 | 68.6 | 22.8 | 155 | 475 | 83.9 | 68.3
32 | O=C(Nc1cncc(Nc2cc(Nc3cccc(C(F)(F)F)c3)ncn2)c1)C1CC1 | > 1000 | > 1000 | > 1000 | > 1000 | > 1000 | > 1000
33 | COc1cccc(Nc2cc(Nc3cccc(NC(=O)C4CCCCC4)c3)ncn2)c1 | 23.6 | 166 | > 1000 | 52.5 | 315 | 83.2
34 | O=C(NCCCNc1cc(Nc2cccc(C(F)(F)F)c2)ncn1)C1CC1 | > 1000 | > 1000 | > 1000 | > 1000 | > 1000 | > 1000
35 | Cc1cc(NC(=O)C2CC2)cc(Nc2cc(Nc3cccc(C(F)(F)F)c3)ncn2)c1 | 31.7 | 201 | > 1000 | 499 | 443 | > 1000
36 | CCc1cccc(Nc2cc(Nc3cccc(NC(=O)C4CC4)c3)ncn2)c1 | 1.9 | 314 | 3.1 | 3.2 | 46.6 | 23.4
37 | O=C(Nc1cccc(Nc2cc(N3CCOc4ccccc43)ncn2)c1)C1CC1 | 84.2 | 34.8 | 563 | 349 | > 1000 | > 1000
38 | CCOc1cccc(Nc2cc(Nc3cccc(NC(=O)C4CC4)c3)ncn2)c1 | 17.4 | 128 | 1.9 | 613 | 20.7 | 173
39 | COc1cccc(Nc2nc(Nc3cccc(NC(=O)C4CC4)c3)nc3ccccc23)c1 | 864 | > 1000 | 122 | > 1000 | 172 | > 1000
40 | Cc1c(F)cccc1Nc1cc(Nc2cccc(NC(=O)C3CC3)c2)ncn1 | 31.6 | 429 | 23.4 | 62.2 | 17.8 | 27.9
41 | O=C(Nc1cccc(Nc2nc(Nc3cccc(C(F)(F)F)c3)nc3sccc23)c1)C1CC1 | > 1000 | > 1000 | > 1000 | > 1000 | > 1000 | > 1000
42 | COc1cccc(Nc2nc(Nc3cccc(NC(=O)C4CC4)c3)nc3ccsc23)c1 | > 1000 | > 1000 | 610 | > 1000 | > 1000 | > 1000
43 | O=C(Nc1cccc(Nc2cc(Nc3cccc(C(F)F)c3)ncn2)c1)C1CC1 | 2.1 | 15.6 | 38.7 | 48.5 | 61.3 | 9.3
